Measured values taken from the Deep4Chem optical property database.
Blank lines part the entries; values can stand above or below the molecule they belong to.

Assay: solvent given as SMILES

Compound: CN(C)c1ccc(-c2ccc(-c3ccc(N(C)C)cc3)c3nc(-c4ccccc4)c(-c4ccccc4)nc23)cc1
- emission maximum (in C1CCOC1): 601 nm
- emission maximum (in CC#N): 646 nm
- emission maximum (in CCCCCC): 538 nm
- emission maximum (in CN(C)C=O): 648 nm
- emission maximum (in Cc1ccccc1): 577 nm
- emission maximum (in ClC(Cl)Cl): 597 nm

Compound: F[B-]1(F)n2c(cc3c4ccccc4c4ccccc4c32)-c2ccc3ccccc3[n+]21
- emission maximum (in ClCCl): 585 nm

Compound: CN(C)c1ccc2cc3ccc(=[N+](C)C)cc-3oc2c1
- emission maximum (in CCO): 568 nm
- emission maximum (in O): 565 nm

Compound: Cc1nc2c(cc3c4c(cccc42)C(=O)OC3=O)o1
- emission maximum (in CCO): 418 nm

Compound: CC1=CC(C)=[N+]2C1=C(c1ccc(Br)cc1)c1c(C)cc(/C=C/c3ccc[nH]3)n1[B-]2(F)F
- emission maximum (in ClCCl): 613 nm

Compound: CC(C)(C)c1ccc2oc3nc4oc5ccc(-n6c7ccccc7c7ccccc76)cc5c4cc3c2c1
- emission maximum (in ClC(Cl)Cl): 446 nm

Compound: c1cc2ccc3ccc(-c4ccc(-c5nnc(-c6ccc(-c7nnc(-c8ccc(-c9ccc%10ccc%11cccc%12ccc9c%10c%11%12)s8)o7)cc6)o5)s4)c4ccc(c1)c2c34
- emission maximum (in C1COCCO1): 373 nm
- emission maximum (in CC#N): 398 nm
- emission maximum (in CC(=O)N(C)C): 373 nm
- emission maximum (in CCCCCCCCCCO): 418 nm
- emission maximum (in CCCCCCCCO): 393 nm
- emission maximum (in CCCCCCO): 394 nm
- emission maximum (in CCCCO): 393 nm
- emission maximum (in CCO): 393 nm
- emission maximum (in CS(C)=O): 374 nm
- emission maximum (in Cc1ccccc1): 419 nm
- emission maximum (in ClC(Cl)Cl): 373 nm

Compound: CCOC(=O)c1c(-c2cc3ccc(OCC=C(C)C)cc3oc2=O)nn(-c2cccc(Cl)c2)c1C(=O)OCC
- emission maximum (in ClCCl): 426 nm

Compound: c1ccc(-c2nnc(-c3cc(-n4c5ccccc5c5ccccc54)c(-n4c5ccccc5c5ccccc54)cc3-c3nnc(-c4ccccc4)o3)o2)cc1
- emission maximum (in CC#N): 525.15 nm
- emission maximum (in Cc1ccccc1): 466 nm
- emission maximum (in ClCCl): 500.52 nm

Compound: COCCC1=Cc2nc1ccc1[nH]c(cc1CCOC)c1nc(c(OC)cc3[nH]c2cc3CCOC)C(CCOC)=C1
- emission maximum (in Cc1ccccc1): 690 nm

Compound: CCCCCCc1ccc2c3c(ccc2c1)O[B-](F)(F)[N+](c1ccc([N+]2=Cc4c(ccc5cc(CCCCCC)ccc45)O[B-]2(F)F)cc1)=C3
- emission maximum (in C1CCOC1): 505 nm
- emission maximum (in CC#N): 502 nm
- emission maximum (in Cc1ccccc1): 508 nm
- emission maximum (in ClCCl): 507 nm

Compound: c1cnc(-c2c3ccccc3c(-c3cncnc3)c3ccccc23)nc1
- emission maximum (in CCO): 433 nm
- emission maximum (in ClCCl): 436 nm

Compound: N#Cc1cc(-n2c3ccccc3c3ccccc32)c(C#N)cc1-n1c2ccccc2c2ccccc21
- emission maximum (in c1cc(-c2cccc(-n3c4ccccc4c4ccccc43)c2)cc(-n2c3ccccc3c3ccccc32)c1): 370 nm
- emission maximum (in c1ccc2c(c1)c1ccccc1n2P1(n2c3ccccc3c3ccccc32)=NP(n2c3ccccc3c3ccccc32)(n2c3ccccc3c3ccccc32)=NP(n2c3ccccc3c3ccccc32)(n2c3ccccc3c3ccccc32)=N1): 370 nm

Compound: CC[Si](CC)(CC)c1cc2ccc3cccc4ccc(c1C(=O)NC(C)(C)C)c2c34
- emission maximum (in ClC(Cl)Cl): 383 nm

Compound: Cc1ccc(C2=[N+]3C(=Cc4ccc(C)n4[B-]3(F)F)c3ccccc32)[nH]1
- emission maximum (in C1CCOC1): 621 nm
- emission maximum (in CC#N): 620 nm
- emission maximum (in CCCCCC): 613 nm
- emission maximum (in CO): 616 nm
- emission maximum (in Cc1ccccc1): 623 nm
- emission maximum (in ClCCl): 624 nm

Compound: Cc1c(COC(=O)c2ccccc2Br)n2c(OCC(=O)c3ccccc3Br)c(C)c(=O)n2c1=O
- emission maximum (in CCO): 458 nm

Compound: O=C(Nc1ccccc1[N+](=O)[O-])c1ccc2oc(-c3cc4ccccc4oc3=O)nc2c1
- emission maximum (in ClCCl): 443 nm

Compound: CC1=[N+]2C(=C(c3ccc(-c4c5ccccc5c(-c5ccccc5)c5ccccc45)cc3)c3ccc(C)n3[B-]2(F)F)C=C1
- emission maximum (in CC#N): 523 nm
- emission maximum (in CCCCCC): 526 nm
- emission maximum (in CCO): 526 nm
- emission maximum (in CN(C)C=O): 529 nm
- emission maximum (in Cc1ccccc1): 532 nm
- emission maximum (in ClCCl): 526 nm

Compound: NC(=O)Cc1cccc2ccccc12
- emission maximum (in C1COCCO1): 326 nm
- emission maximum (in CC#N): 325 nm
- emission maximum (in CCO): 325 nm
- emission maximum (in ClC(Cl)Cl): 325 nm
- emission maximum (in O): 324 nm
- emission maximum (in OCCO): 325 nm
- emission maximum (in [2H]O[2H]): 324 nm

Compound: N#Cc1cccc(-c2nc(-c3ccccc3)c(-c3ccccc3)[nH]2)c1
- emission maximum (in CO): 440 nm

Compound: c1ccc(-c2nn(-c3ccccc3)c3nc4ccc(N(c5ccccc5)c5ccccc5)cc4cc23)cc1
- emission maximum (in C1CCCCC1): 486.62 nm
- emission maximum (in C1CCOC1): 524.66 nm
- emission maximum (in CC#N): 570.78 nm
- emission maximum (in CC(C)=O): 551.27 nm
- emission maximum (in CCCCCl): 516 nm
- emission maximum (in CCCCOCCCC): 498.75 nm
- emission maximum (in CN(C)C=O): 567.21 nm

Compound: COc1ccc(N2c3sc4ccccc4c3Sc3sc4ccccc4c32)cc1
- emission maximum (in ClCCl): 562 nm

Compound: Cc1ccc2c(c1)C(C)(C)c1cc(C)ccc1N2c1ccc2c(c1)C(C)(C)c1cc(N3c4ccc(C)cc4C(C)(C)c4cc(C)ccc43)ccc1S2(=O)=O
- emission maximum (in Cc1ccccc1): 470.07 nm
- emission maximum (in ClCCl): 538 nm

Compound: Cc1csc2[n+]1[B-](F)(F)OC(c1ccc(N(C)C)cc1)=N2
- emission maximum (in C1CCOC1): 453 nm
- emission maximum (in CC#N): 466 nm
- emission maximum (in Cc1ccccc1): 437 nm
- emission maximum (in ClCCl): 453 nm

Compound: CCOC(=O)C(Cc1ccc(O[Si]2(Oc3ccc(CC(NC(C)=O)C(=O)OCC)cc3)n3c4c5ccccc5c3/N=C3N=C(/N=c5/c6ccccc6/c(n52)=N/C2=NC(=N\4)/c4ccccc42)c2ccccc2\3)cc1)NC(C)=O (stereo unspecified)
- emission maximum (in CN(C)C=O): 686 nm

Compound: C[N+]1=c2cc3c(cc2C(C)(C)CC1)=C(c1ccccc1C(=O)O)c1cc2c(cc1O3)Oc1cc3c(cc1=C2c1ccccc1C(=O)O)C(C)(C)CC[N+]=3C
- emission maximum (in ClC(Cl)Cl): 612 nm

Results, then the molecule that gave them:

- emission maximum (in ClC(Cl)Cl): 431 nm
Compound: CCC1(CC)c2cc(-c3ccc(N(c4ccc(-c5ccc6c(c5)C(CC)(CC)c5cc(N7c8ccccc8C(C)(C)c8ccccc87)ccc5-6)cc4)c4ccc(-c5ccc6c(c5)C(CC)(CC)c5cc(N7c8ccccc8C(C)(C)c8ccccc87)ccc5-6)cc4)cc3)ccc2-c2ccc(N3c4ccccc4C(C)(C)c4ccccc43)cc21

- emission maximum (in C1COCCO1): 522 nm
Compound: COC(=O)c1ccc(/C=C2\C=C(c3ccc(OC)c(OC)c3)OC2=O)cc1

- emission maximum (in ClCCl): 365 nm
Compound: COc1cccc2cc(C)c3c4ccccc4[nH]c3c12

- emission maximum (in ClCCl): 451 nm
Compound: CCCCn1c(-c2ccc(-c3nnc(-c4ccc(-c5nc6c7ccccc7c7ccccc7c6n5CCCC)cc4)o3)cc2)nc2c3ccccc3c3ccccc3c21

- emission maximum (in ClCCl): 437 nm
Compound: CCCCn1c2ccc(-c3ccc4c(c3)c3c5c(ccc6ccccc65)ccc3n4CCCC)cc2c2c3c(ccc4ccccc43)ccc21

- emission maximum (in C1CCOC1): 475 nm
Compound: C(=C\c1cccc(/C=C/c2c3ccccc3cc3ccccc23)c1)/c1ccncc1

- emission maximum (in C1CCCCC1): 537 nm
- emission maximum (in CC#N): 578 nm
Compound: COc1cc(OC)c2c(c1)C(=O)c1ccc(OC)cc1-2

- emission maximum (in ClCCl): 405 nm
Compound: CC(C)(C)NC(=O)c1ccc(F)c2ccc3c4ccccc4c4ccccc4c3c12

- emission maximum (in O): 341 nm
Compound: O=C(O)c1cc(O)c(O)c(O)c1

- emission maximum (in CCO): 423 nm
Compound: CC(C)Nc1cc2c(cc1F)c(=O)c1cc(F)c(NC(C)C)cc1n2C(C)C

- emission maximum (in C1CCCCC1): 638 nm
Compound: COc1ccc2c3ccc(OC)cc3n(-c3cc(Cl)c([C](c4c(Cl)cc(Cl)cc4Cl)c4c(Cl)cc(Cl)cc4Cl)c(Cl)c3)c2c1

- emission maximum (in C1CCCCC1): 380 nm
- emission maximum (in CO): 385 nm
Compound: Clc1ccc(/C=C/c2nc3ccccc3o2)cc1

- emission maximum (in CCO): 436 nm
Compound: CCOC(=O)c1cc(C(=O)OCC)c2cc(NC(=O)C(F)(F)F)ccc2n1

- emission maximum (in ClCCl): 521 nm
Compound: O=c1c2ccccc2nc2ccc(-c3ccc(N(c4ccccc4)c4ccccc4)cc3)cn12

- emission maximum (in ClC(Cl)Cl): 431 nm
Compound: Cc1ccc2nc3c4c(c5ccccc5c3nc2c1)OC(=O)CC4c1ccc(F)cc1 (stereo unspecified)

- emission maximum (in C1COCCO1): 444 nm
Compound: O=C1NC(c2ccccc2)=N/C1=C\c1ccccc1

- emission maximum (in CCCCCC): 620 nm
- emission maximum (in CCCCCCCCO): 629 nm
- emission maximum (in CCOC(C)=O): 623 nm
- emission maximum (in CN(C)C=O): 630 nm
- emission maximum (in ClCCl): 633 nm
Compound: COc1ccc(C#Cc2c3ccccc3c3n2[B-](F)(F)[N+]2=C(C)C=C(C)C2=C3)cc1

- emission maximum (in C1CCOC1): 593 nm
Compound: COc1cc2c(cc1-c1ccc(N(C)C)cc1)Cc1c3c(c4c(c1-2)-c1cc(OC)c(-c2ccc(N(C)C)cc2)cc1C4)C(=O)N(CCC(C)C)C3=O

- emission maximum (in CCO): 446 nm
Compound: CC(C)Nc1cc2sc3cc(NC(C)C)c(F)cc3c(=O)c2cc1F

- emission maximum (in CC#N): 456 nm
Compound: COc1ccc(C#Cc2cc3ccccc3oc2=O)cc1

- emission maximum (in CO): 487 nm
Compound: C1=CN2C[n+]3cccc(OCc4ccccc4)c3N=C2C(OCc2ccccc2)=C1

- emission maximum (in C1CCOC1): 627 nm
Compound: Cc1ccsc1-c1cc2c3cc(-c4sccc4C)c4nc(C(F)(F)C(F)(F)C(F)(F)F)nc5c(-c6sccc6C)cc(c6cc(-c7sccc7C)c7nc(C(F)(F)C(F)(F)C(F)(F)F)nc1c7c26)c3c45

- emission maximum (in CC#N): 478 nm
Compound: CC(C)c1ccc(-c2nc(-c3ccccc3)c3ccccn23)cc1

- emission maximum (in C1CCCCC1): 501 nm
- emission maximum (in CC#N): 544 nm
- emission maximum (in ClC(Cl)Cl): 522 nm
Compound: O=C1Cc2cc3c(cc2CCCc2ccc(cc2)CCC3)CC(=O)Cc2ccc(c3nsnc23)C1

- emission maximum (in ClCCl): 405 nm
Compound: CC(C)(C)c1ccc(-c2ccc3c(-c4ccc(C(C)(C)C)c5ccccc45)cc4c5cc(-c6ccc(C(C)(C)C)c7ccccc67)ccc5c(-c5ccc(C(C)(C)C)c6ccccc56)cc4c3c2)c2ccccc12

- emission maximum (in ClCCl): 583 nm
Compound: CCCCCCOc1cc(N(CC)CC)ccc1/C=C/C(=C(C#N)C#N)c1ccc2c(c1)c1ccccc1n2CC

- emission maximum (in ClCCl): 406 nm
Compound: c1ccc(C2=C(c3ccccn3)[Si](c3ccccc3)(c3ccccc3)c3ccccc32)cc1

- emission maximum (in CC#N): 458 nm
- emission maximum (in CCCCCC): 392 nm
- emission maximum (in CO): 483 nm
- emission maximum (in ClC(Cl)Cl): 439 nm
Compound: c1cc2ccc3cccc4c(-c5cc(-c6nccs6)nc(-c6nccs6)c5)cc(c1)c2c34

- emission maximum (in CC#N): 392 nm
Compound: Cc1ccc(-c2ccc(/C=C/c3ccc(Cl)cc3)cn2)nc1

- emission maximum (in ClCCl): 461 nm
Compound: CCN(CC)c1ccc2c(c1)oc(=O)c1c(C)nc3c(c(-c4ccccc4)nn3-c3ccccc3)c12
